In ChEMBL document CHEMBL1122434, “Antitumor amino-substituted pyrido[3',4':4,5]pyrrolo[2,3-g]isoquinolines and pyrido[4,3-b]carbazole derivatives: synthesis and evaluation of compounds resulting from new side chain and heterocycle modifications” (J Med Chem, 1983):
Numbered stars: 1 amine (or outer) side, 2 acyl side, 3 side chain; on linkers, the order of the positions; unused ones are H or OH. Bridge positions count the residues as written; N and C are the ends. Square brackets hold non-standard residues; d marks the D form. Peptide text beside a SMILES is read from it. I, II: the chains in the order shown. Actinocin(1to9) = Cc1c2oc3c(C)ccc(C(=O)[*:2])c3nc-2c(C(=O)[*:1])c(N)c1=O; NMeV = CN[C@H](C(=O)O)C(C)C; Sar = CNCC(=O)O

Columns and labels:
[1] = tested on: L1210; assay: Cytotoxicity against L1210 tumor cell line, activity is expressed as K (inverse value of drug concentration); type: functional, cell-based; conditions: Mus musculus
[2] = tested on: Mus musculus; assay: Acute toxicity in mice (LD100) after i.p. administration; type: organism-based; conditions: in vivo, ip
[3] = tested on: L1210; assay: In vitro cytotoxicity against L1210 cell line as concentration required for 50% inhibition of cell growth; type: functional; conditions: Mus musculus, read-out: ID50 (the source's name)
[4] = tested on: L1210; assay: Antitumor activity against L1210 leukemia cells measured as Median survival time at 25 mg/kg; type: functional, Mus musculus
[5] = Acute toxicity in mice (LD0) after i.p. administration (highest nontoxic dose); type: organism-based; conditions: mouse, in vivo, ip; read-out: LD0
[6] = tested on: L1210; assay: Antitumor activity against L1210 leukemia cells measured as range of death at 25 mg/kg; value may range from 14 to 19; conditions: Mus musculus
[7] = tested on: L1210; assay: Antitumor activity against L1210 leukemia cells measured as Median survival time at 20 mg/kg; type: functional, Mus musculus
[8] = tested on: L1210; assay: Antitumor activity against L1210 leukemia cells measured as range of death at 20 mg/kg; value may range from 15 to 19; type: functional, Mus musculus
[9] = tested on: L1210; assay: Antitumor activity against L1210 leukemia cells measured as percent increase in life span (% ILS) at 10 mg/kg; type: functional; conditions: Mus musculus
[10] = tested on: L1210; assay: Antitumor activity against L1210 leukemia cells measured as Median survival time at 10 mg/kg; type: functional, Mus musculus
[11] = tested on: L1210; assay: Antitumor activity against L1210 leukemia cells measured as range of death at 10 mg/kg; value may range from 14 to 19; type: functional, Mus musculus
[12] = tested on: L1210; assay: Antitumor activity against L1210 leukemia cells measured as range of death at 12 mg/kg; value may range from 12 to 14; type: functional, Mus musculus
[13] = tested on: L1210; assay: Antitumor activity against L1210 leukemia cells measured as Median survival time at 12 mg/kg; type: functional, Mus musculus
[14] = tested on: L1210; assay: Antitumor activity against L1210 leukemia cells measured as range of death at 10 mg/kg; value may range from 16 to 20; conditions: Mus musculus
[15] = tested on: L1210; assay: Antitumor activity against L1210 leukemia cells measured as range of death at 10 mg/kg; value may range from 8 to 20; type: functional, Mus musculus
[16] = tested on: L1210; assay: Antitumor activity against L1210 leukemia cells measured as Median survival time at 2.5 mg/kg; type: functional, Mus musculus
[17] = tested on: L1210; assay: Antitumor activity against L1210 leukemia cells measured as range of death at 2.5 mg/kg; value may range from 12 to 19; type: functional, Mus musculus
[18] = tested on: L1210; assay: Antitumor activity against L1210 leukemia cells measured as Median survival time at 12.5 mg/kg; type: functional, Mus musculus
[19] = tested on: L1210; assay: Antitumor activity against L1210 leukemia cells measured as range of death at 12.5 mg/kg; value may range from 12 to 27; type: functional, Mus musculus
[20] = tested on: L1210; assay: Antitumor activity against L1210 leukemia cells measured as range of death at 10 mg/kg; value may range from 16 to 42; type: functional, Mus musculus
[21] = tested on: L1210; assay: Antitumor activity against L1210 leukemia cells measured as range of death at 2.5 mg/kg; value may range from 14 to 19; type: functional, Mus musculus
[22] = tested on: L1210; assay: Antitumor activity against L1210 leukemia cells measured as range of death at 20 mg/kg; value may range from 14 to 17; type: functional, Mus musculus
[23] = tested on: L1210; assay: Antitumor activity against L1210 leukemia cells measured as range of death at 10 mg/kg; type: functional, Mus musculus
[24] = tested on: L1210; assay: Antitumor activity against L1210 leukemia cells measured as range of death at 15 mg/kg; value may range from 7 to 44; conditions: Mus musculus
[25] = tested on: L1210; assay: Antitumor activity against L1210 leukemia cells measured as Median survival time at 15 mg/kg; type: functional, Mus musculus
[26] = tested on: L1210; assay: Antitumor activity against L1210 leukemia cells measured as range of death at 15 mg/kg; value may range from 19 to 35; type: functional, Mus musculus
[27] = tested on: L1210; assay: Antitumor activity against L1210 leukemia cells measured as range of death at 10 mg/kg; value may range from 12 to 25; type: functional, Mus musculus
[28] = tested on: L1210; assay: Antitumor activity against L1210 leukemia cells measured as range of death at 3.75 mg/kg; value may range from 15 to 21; type: functional, Mus musculus
[29] = tested on: L1210; assay: Antitumor activity against L1210 leukemia cells measured as Median survival time at 3.75 mg/kg; type: functional, Mus musculus
[30] = tested on: L1210; assay: Antitumor activity against L1210 leukemia cells measured as range of death at 10 mg/kg; value may range from 8 to 28; type: functional, Mus musculus
[31] = tested on: L1210; assay: Antitumor activity against L1210 leukemia cells measured as range of death at 15 mg/kg; value may range from 12 to 19; type: functional, Mus musculus
[32] = tested on: L1210; assay: Antitumor activity against L1210 leukemia cells measured as range of death at 20 mg/kg; value may range from 14 to 25; type: functional, Mus musculus
[33] = tested on: L1210; assay: Antitumor activity against L1210 leukemia cells measured as range of death at 20 mg/kg; value may range from 9 to 12; type: functional, Mus musculus

SMILES | K [1] [µM⁻¹] | LD100 [2] [mg/kg] | IC50 [3] [nM] | MTD [5] [mg/kg] | ILS at 10 mg/kg [9] [%] | MST [10] [days] | other results
Cc1c2ccnc(NCCCN(CCO)CCO)c2cc2c3c[nH]ccc-3nc12 | 1.7 | 100 | 600 | 30 |  |  | MST [4]: 15.5 days; Range of death [6]: 19 days
CCN(CCCN)CCCNc1nccc2c(C)c3[nH]c4ccncc4c3cc12 | 5 | 40 | 200 | 20 |  |  | MST [7]: 17 days; Range of death [8]: 19 days
CCN(CC)CCCNc1nccc2c(C)c3c(c(C)c12)c1cc(O)ccc1n3C | 5 | 25 | 200 | 12 | 66.5 | 16.1 | Range of death [11]: 19 days
CCN(CC)CCCNc1nccc2c(C)c3c(cc12)c1cc(O)ccc1n3C | 16 | 25 | 60 | 12.5 |  |  | Range of death [12]: 14 days; MST [13]: 13 days
CCN(CC)CCCNc1nccc2c(C)c3[nH]c4ccncc4c3c(C)c12 | 143 | 20 | 7 | 10 | 46 | 16.8 | Range of death [14]: 20 days
Cc1c2c(NCCCN(C)C)nccc2c(C)c2c1c1cc(O)ccc1n2C | 33 | 50 | 30 | 10 | 68 | 16.3 | Range of death [15]: 20 days
CCNCCCNc1nccc2c(C)c3c(c(C)c12)c1cc(O)ccc1n3C | 50 | 25 | 20 | 10 |  |  | MST [16]: 14.5 days; Range of death [17]: 19 days
CCN(CC)CC(O)CNc1nccc2c(C)c3[nH]c4ccncc4c3cc12 (stereo not given) | 20 | 40 | 50 | 25 |  |  | MST [18]: 16.3 days; Range of death [19]: 27 days
CCNCCCNc1nccc2c(C)c3[nH]c4ccncc4c3cc12 | 10 | 30 | 100 | 20 | 114 | 25 | Range of death [20]: 42 days
CCN(CC)CCCNc1nccc2c(C)c3[nH]c4ccc(O)cc4c3c(C)c12 | 33 | 10 | 30 | 3 |  |  | Range of death [21]: 19 days; MST [16]: 16.5 days
Cc1c2ccnc(NCC(O)CO)c2cc2c3c[nH]ccc-3nc12 (stereo not given) | 4 | 60 | 250 | 40 |  |  | MST [7]: 16 days; Range of death [22]: 17 days
CCN(CC)CCCNc1nccc2c(C)c3[nH]c4ccc(O)cc4c3cc12 | 50 | 7 | 20 | 2.5 |  |  | Range of death [21]: 19 days; MST [16]: 16.4 days
COc1ccc2[nH]c3c(C)c4ccnc(NCCCN(CCCl)CCCl)c4cc3c2c1 | 5 | 20 | 200 | 15 | 26 | 13.6 | Range of death [23]: 12 days
Cc1c2ccnc(NCCCN(C)C)c2c(C)c2c1[nH]c1ccncc12 | 125 | 20 | 8 | 15 |  |  | Range of death [24]: 44 days; MST [25]: 25.2 days
CCN(CC)CCCNc1nccc2c(C)c3[nH]c4ccc(OC)cc4c3c(C)c12 [RETELLIPTINE] | 30 | 60 | 30 | 15 |  |  | MST [25]: 29.5 days; Range of death [26]: 35 days
Cc1c2oc3c(C)ccc(C(=O)N[C@@H]4C(=O)N[C@H](C(C)C)C(=O)N5CCC[C@H]5C(=O)N(C)CC(=O)N(C)[C@@H](C(C)C)C(=O)O[C@@H]4C)c3nc-2c(C(=O)N[C@@H]2C(=O)N[C@H](C(C)C)C(=O)N3CCC[C@H]3C(=O)N(C)CC(=O)N(C)[C@@H](C(C)C)C(=O)O[C@@H]2C)c(N)c1=O [DACTINOMYCIN] (I: T[dV]P[Sar][NMeV] / II: T[dV]P[Sar][NMeV]; ester I:1-I:C, II:1-II:C; linker I:N-II:N via Actinocin(1to9)) | 1000 |  | 1 |  |  |  | 
CCNCCCNc1nccc2c(C)c3[nH]c4ccc(OC)cc4c3cc12 | 1.7 | 30 | 600 | 20 | 26 | 14.8 | Range of death [27]: 25 days
COc1ccc2[nH]c3c(C)c4ccnc(NCCCN(CCO)CCO)c4c(C)c3c2c1 | 2.5 | 15 | 400 | 10 |  |  | Range of death [28]: 21 days; MST [29]: 18.4 days
CCNCCCNc1nccc2c(C)c3[nH]c4ccc(OC)cc4c3c(C)c12 | 10 | 20 | 100 | 16 | 84 | 20 | Range of death [30]: 28 days
CCN(CC)CCCNc1nccc2c(C)c3[nH]c4ccc(OC)cc4c3cc12 | 0.2 | 40 | 5000 | 20 |  |  | MST [25]: 14.3 days; Range of death [31]: 19 days
CCN(CC)CCCNc1nccc2c(C)c3[nH]c4ccncc4c3cc12 [PAZELLIPTINE] | 50 | 30 | 20 | 25 |  |  | MST [7]: 20.5 days; Range of death [32]: 25 days
CCN(CC)CCNc1nccc2c(C)c3c(cc12)c1cc(OC)ccc1n3C | 0.5 | 30 | 2000 | 20 |  |  | MST [7]: 11 days; Range of death [33]: 12 days
